29 molecules from patent US11459315B2, “Modulators of methyl modifying enzymes, compositions and uses thereof” (Constellation Pharmaceuticals, Inc., priority 2017, dated 2022) can be followed below.

Like-named read-outs stand apart in the source and are kept apart here. A value given as a limit tells only on which side of the number the result lay.

As usually defined, the IC50 is the point on the concentration scale where inhibition reaches its midpoint. Broadly, the EC50 is the midpoint of the concentration-response curve.

For one assay, the target named is PRC2 containing wt EZH2 (Homo sapiens (Human), UniProt Q15910). The experiment in a line: EZH2 biochemical assay (IC50), 3H-SAM incorporation into biotinylated H3 peptide. In outline: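 Activity was measured as ³H-methyl transfer to a biotinylated H3K27me1 peptide over 18-22 h at room temperature, with capture on streptavidin flash plates. The 30 pM wt-EZH2 PRC2 complex was first pre-incubated 3-5 h with compound, 450 nM SAM/450 nM ³H-SAM and 2 µM H3K27me3 activator (pH 8.5, 0.8% DMSO). Four-parameter fits gave IC50.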

Assay [1] concerns H3K27me3 mark in HeLa cells (EZH2). The experiment in a line: H3K27me3 Alpha Hela Assay (AlphaLISA). The format is cell-based. The following applies: HeLa cells, 72 hrs, read-out: EZH2 Cell H3K27me3 Alpha HeLa (EC50 K27me3). A digest of the protocol: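 HeLa cells (1,000/well) treated with ten 3-fold compound doses for 72 h at 37 °C; lysates extracted and H3K27me3 detected by AlphaLISA with anti-K27me3 acceptor beads, biotinylated anti-H3 (3 nM) and streptavidin donor beads. EC50 from DMSO-normalized dose-response curves; duplicate plate assessed viability.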
In general terms: Alpha assays give light when donor and acceptor beads are brought close together.

Setting [2] is: 30 pM PRC2 containing wt EZH2; 3-5 h pre-incubation; read-out: EZH2 (IC50).
[3] abbreviates: EZH2 (IC50), 30 pM PRC2 containing wt EZH2; 3-5 h pre-incubation.
The mark [4] stands for this setting: read-out: EZH2 (IC50); 30 pM PRC2 containing wt EZH2; 3-5 h pre-incubation.

Chain of PRC2 containing wt EZH2 (Q15910 whole entry): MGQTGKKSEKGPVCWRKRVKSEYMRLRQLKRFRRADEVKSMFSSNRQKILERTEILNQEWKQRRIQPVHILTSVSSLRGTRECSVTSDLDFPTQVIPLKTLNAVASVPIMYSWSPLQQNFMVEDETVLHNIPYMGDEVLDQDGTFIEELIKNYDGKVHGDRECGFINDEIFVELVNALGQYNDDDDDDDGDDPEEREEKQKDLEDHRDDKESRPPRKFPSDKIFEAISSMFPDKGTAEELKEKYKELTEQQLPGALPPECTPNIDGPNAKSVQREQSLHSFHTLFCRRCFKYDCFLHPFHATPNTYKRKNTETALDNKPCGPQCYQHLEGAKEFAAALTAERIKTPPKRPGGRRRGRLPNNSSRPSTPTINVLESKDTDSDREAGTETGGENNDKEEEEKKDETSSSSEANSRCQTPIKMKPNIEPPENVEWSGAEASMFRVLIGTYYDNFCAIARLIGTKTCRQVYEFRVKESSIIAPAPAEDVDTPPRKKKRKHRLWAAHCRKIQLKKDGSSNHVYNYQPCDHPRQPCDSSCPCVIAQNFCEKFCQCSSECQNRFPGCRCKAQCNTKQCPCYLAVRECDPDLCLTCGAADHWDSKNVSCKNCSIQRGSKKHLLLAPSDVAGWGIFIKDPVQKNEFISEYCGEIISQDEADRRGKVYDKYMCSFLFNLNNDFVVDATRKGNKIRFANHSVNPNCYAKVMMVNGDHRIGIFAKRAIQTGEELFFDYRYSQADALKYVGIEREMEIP
Chain of PRC2 containing wt EZH2 (O75530 whole entry partner): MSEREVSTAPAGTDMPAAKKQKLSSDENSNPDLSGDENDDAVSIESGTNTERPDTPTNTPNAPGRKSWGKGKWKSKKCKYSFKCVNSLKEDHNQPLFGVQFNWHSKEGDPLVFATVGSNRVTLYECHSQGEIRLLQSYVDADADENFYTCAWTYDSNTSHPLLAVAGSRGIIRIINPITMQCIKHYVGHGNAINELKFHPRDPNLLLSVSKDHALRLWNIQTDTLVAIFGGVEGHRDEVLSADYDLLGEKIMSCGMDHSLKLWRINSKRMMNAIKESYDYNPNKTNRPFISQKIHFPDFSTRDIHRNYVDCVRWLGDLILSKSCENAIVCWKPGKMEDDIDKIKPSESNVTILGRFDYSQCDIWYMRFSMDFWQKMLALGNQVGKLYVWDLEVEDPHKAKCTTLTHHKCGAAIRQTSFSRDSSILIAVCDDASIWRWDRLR
Chain of PRC2 containing wt EZH2 (Q15022 whole entry partner): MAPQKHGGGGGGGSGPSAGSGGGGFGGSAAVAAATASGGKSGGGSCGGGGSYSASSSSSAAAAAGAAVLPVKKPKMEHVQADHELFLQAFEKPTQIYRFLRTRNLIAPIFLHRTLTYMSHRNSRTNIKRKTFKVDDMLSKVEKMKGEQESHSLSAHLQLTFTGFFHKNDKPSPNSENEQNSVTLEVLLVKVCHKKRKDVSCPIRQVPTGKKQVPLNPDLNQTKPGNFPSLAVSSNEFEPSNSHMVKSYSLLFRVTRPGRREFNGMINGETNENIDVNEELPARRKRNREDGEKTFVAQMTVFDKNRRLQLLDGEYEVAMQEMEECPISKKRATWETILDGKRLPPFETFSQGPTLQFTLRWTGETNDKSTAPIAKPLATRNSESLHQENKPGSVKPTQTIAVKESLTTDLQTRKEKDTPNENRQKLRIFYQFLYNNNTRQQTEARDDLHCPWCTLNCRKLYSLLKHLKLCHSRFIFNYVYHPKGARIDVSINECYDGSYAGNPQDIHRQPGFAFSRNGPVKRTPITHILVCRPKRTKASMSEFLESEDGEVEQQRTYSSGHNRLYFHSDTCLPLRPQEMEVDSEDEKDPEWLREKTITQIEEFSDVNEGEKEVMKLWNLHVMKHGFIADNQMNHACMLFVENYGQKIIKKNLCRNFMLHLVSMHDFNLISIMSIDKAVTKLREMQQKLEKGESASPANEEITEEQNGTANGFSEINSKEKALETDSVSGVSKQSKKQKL
Chain of PRC2 containing wt EZH2 (Q09028 whole entry partner): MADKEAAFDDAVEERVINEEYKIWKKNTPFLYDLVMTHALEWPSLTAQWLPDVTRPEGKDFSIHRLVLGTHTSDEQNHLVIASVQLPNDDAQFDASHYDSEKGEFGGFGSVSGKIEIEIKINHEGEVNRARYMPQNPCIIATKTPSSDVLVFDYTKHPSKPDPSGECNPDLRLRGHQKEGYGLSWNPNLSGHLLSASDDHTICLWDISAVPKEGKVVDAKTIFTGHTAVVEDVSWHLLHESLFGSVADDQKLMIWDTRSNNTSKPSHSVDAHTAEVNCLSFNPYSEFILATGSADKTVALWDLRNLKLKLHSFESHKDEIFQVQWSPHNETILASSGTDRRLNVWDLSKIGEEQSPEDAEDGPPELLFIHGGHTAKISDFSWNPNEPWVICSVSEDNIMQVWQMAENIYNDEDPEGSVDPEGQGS
Chain of PRC2 containing wt EZH2 (Q6ZN18 whole entry partner): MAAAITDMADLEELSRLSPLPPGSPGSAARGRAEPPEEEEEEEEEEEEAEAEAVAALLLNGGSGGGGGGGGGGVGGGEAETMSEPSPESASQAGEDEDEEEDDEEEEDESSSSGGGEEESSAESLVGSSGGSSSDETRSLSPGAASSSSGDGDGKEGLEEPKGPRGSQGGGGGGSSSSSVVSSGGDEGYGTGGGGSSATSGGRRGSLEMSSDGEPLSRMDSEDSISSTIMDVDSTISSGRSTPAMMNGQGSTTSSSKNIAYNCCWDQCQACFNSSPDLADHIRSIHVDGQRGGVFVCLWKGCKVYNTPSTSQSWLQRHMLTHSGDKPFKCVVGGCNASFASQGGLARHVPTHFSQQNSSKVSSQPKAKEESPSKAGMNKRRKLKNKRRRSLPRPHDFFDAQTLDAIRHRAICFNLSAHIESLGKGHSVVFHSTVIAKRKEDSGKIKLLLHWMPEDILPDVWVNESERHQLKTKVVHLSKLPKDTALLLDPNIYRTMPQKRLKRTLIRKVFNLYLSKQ

On to `CSc1cc(C)[nH]c(=O)c1CNC(=O)c1c(C)n([C@H](C)[C@H]2CC[C@H](NC3(C)COC3)CC2)c2ccccc12` (single isomer, unassigned) [1 (isomer 2)], for which, at PRC2 containing wt EZH2 (setting [2]), the half-maximal inhibitory concentration (IC50) is below 0.5 nM. Further, in assay [1], the concentration for a half-maximal effect (EC50) is 10 to 100 nM.
`CSc1cc(C)[nH]c(=O)c1CNC(=O)c1c(C)n([C@H](C)C2CCN(CC(F)F)CC2)c2ncccc12` [Example 59, (R)-1-(1-(1-(2,2-difluoroethyl)piperidin-4-yl)ethyl)-2-methyl-N-((6-methyl-4-(methylthio)-2-oxo-1,2-dihydropyridin-3-yl)methyl)-1H-pyrrolo[2,3-b]pyridine-3-carboxamide] returned a concentration for half-maximal inhibition (IC50) against PRC2 containing wt EZH2 (setting [3]) below 0.5 nM. In assay [1] (Homo sapiens, HeLa, 72 h), the EC50 was below 10 nM.
Regarding `CCCC(=O)OC1CCC([C@@H](C)n2c(C)c(C(=O)NCc3c(SC)cc(C)[nH]c3=O)c3ccccc32)CC1` (single isomer, unassigned) [143 (isomer 1)], the 50% inhibitory concentration (IC50) on PRC2 containing wt EZH2 (setting [2]) is below 0.5 nM. In addition, the EC50 in assay [1] (Homo sapiens, HeLa, 72 h) is below 10 nM.
With `CSc1cc(C)[nH]c(=O)c1CNC(=O)c1c(C)n([C@H](C)C2CCC(O)CC2)c2cc(F)ccc12` (single isomer, unassigned) [44 (isomer 2)], the IC50 at PRC2 containing wt EZH2 (setting [4]) was below 0.5 nM. Moreover, the EC50 in assay [1] was below 10 nM.
For the molecule `CSc1cc(C)[nH]c(=O)c1CNC(=O)c1c(C)n([C@H](C)C2CCC(NC3(CF)COC3)CC2)c2ncncc12` (single isomer, unassigned) [156 (isomer 2)], the half-maximal inhibitory concentration (IC50) at PRC2 containing wt EZH2 (setting [2]) is below 0.5 nM. In addition, the EC50 in assay [1] lay in the range of 10 to 100 nM.
Taken in the same sequence, the figures for `CSc1cc(C)[nH]c(=O)c1CNC(=O)c1c(C)n([C@H](C)C2CCC(N3CC(S(C)(=O)=O)C3)CC2)c2ccccc12` (single isomer, unassigned) [162 (isomer 1)] were below 0.5 nM and 10 to 100 nM.
With `CSc1cc(C)[nH]c(=O)c1CNC(=O)c1c(C)n([C@H](C)C2CCC(N3CC34COC4)CC2)c2ncccc12` (single isomer, unassigned) [139 (isomer 2)], the half-inhibitory concentration (IC50) at PRC2 containing wt EZH2 (setting [3]) lay in the range of 0.5 to 5 nM. Besides, the EC50 in assay [1] is 10 to 100 nM.
Regarding `CSc1cc(C)[nH]c(=O)c1CNC(=O)c1c(C)n([C@H](C)C2CCC(N3CC(OC4CC4)C3)CC2)c2ncc(F)cc12` (single isomer, unassigned) [28 (isomer 1)], the half-maximal inhibitory concentration (IC50) at PRC2 containing wt EZH2 (setting [2]) is below 0.5 nM. In addition, the EC50 in assay [1] (Homo sapiens, HeLa, 72 h) was below 10 nM.
Molecule `CSc1cc(C)[nH]c(=O)c1CNC(=O)c1c(C)n([C@@H](C)C2CN(CC(F)(F)F)C2)c2ccccc12` [Example 55, (S)-2-methyl-N-((6-methyl-4-(methylthio)-2-oxo-1,2-dihydropyridin-3-yl)methyl)-1-(1-(1-(2,2,2-trifluoroethyl)azetidin-3-yl)ethyl)-1H-indole-3-carboxamide] displayed an IC50 against PRC2 containing wt EZH2 (setting [3]) of 0.5 to 5 nM. Further, the half-maximal effective concentration (EC50) in assay [1] (Homo sapiens, HeLa, 72 h) lay in the range of 10 to 100 nM.
Consider `CSc1cc(C)[nH]c(=O)c1CNC(=O)c1c(C)n([C@H](C)C2CCC(N3CC[C@H](OC(F)F)C3)CC2)c2ncccc12` (stereo partly drawn) [Example 120, 1-((R)-1-(4-((S)-3-(difluoromethoxy)pyrrolidin-1-yl)cyclohexyl)ethyl)-2-methyl-N-((6-methyl-4-(methylthio)-2-oxo-1,2-dihydropyridin-3-yl)methyl)-1H-pyrrolo[2,3-b]pyridine-3-carboxamide], for which the IC50 on PRC2 containing wt EZH2 (setting [2]) was below 0.5 nM. The EC50 in assay [1] (Homo sapiens, HeLa, 72 h) lay in the range of 10 to 100 nM.
For the molecule `CSc1cc(C)[nH]c(=O)c1CNC(=O)c1c(C)n([C@H](C)C2OCC(N3CCC3(C)C)CO2)c2ccccc12` (single isomer, unassigned) [15 (isomer 2)], the IC50 at PRC2 containing wt EZH2 (setting [4]) is below 0.5 nM. Besides, the EC50 in assay [1] is above 100 nM.
In the case of `CSc1cc(C)[nH]c(=O)c1CNC(=O)c1c(C)n([C@H](C)C2CCC(N3CC(OC4CC4)C3)CC2)c2ncncc12` (single isomer, unassigned) [102 (isomer 2)], the IC50 on PRC2 containing wt EZH2 (setting [2]) is below 0.5 nM. For the same molecule, in assay [1], the half-maximal effective concentration (EC50) fell in the range of 10 to 100 nM.
Take `CSc1cc(C)[nH]c(=O)c1CNC(=O)c1c(C)n([C@H](C)C2CCC(OC(C)=O)CC2)c2ccccc12` (single isomer, unassigned) [134 (isomer 1)]: on PRC2 containing wt EZH2 (setting [2]), the half-inhibitory concentration (IC50) was below 0.5 nM. Further, the EC50 in assay [1] (Homo sapiens, HeLa, 72 h) is below 10 nM.
On to `CSc1cc(C)[nH]c(=O)c1CNC(=O)c1c(C)n([C@H](C)[C@H]2CCN(C3CC3)CC2(F)F)c2ncccc12` (single isomer, unassigned) [70 (isomer 1)], for which the IC50 at PRC2 containing wt EZH2 (setting [3]) was below 0.5 nM. Moreover, the EC50 in assay [1] (Homo sapiens, HeLa, 72 h) is below 10 nM.
As to `CSc1cc(C)[nH]c(=O)c1CNC(=O)c1c(C)n([C@H](C)C2CCC(NC3COC3)CC2)c2ccccc12` (single isomer, unassigned) [2 (isomer 1)], the IC50 on PRC2 containing wt EZH2 (setting [2]) is below 0.5 nM. Besides, the 50% effective concentration (EC50) in assay [1] (Homo sapiens, HeLa, 72 h) is below 10 nM.
In the case of `CSc1cc(C)[nH]c(=O)c1CNC(=O)c1c(C)n([C@H](C)C2CCC(NC3(CF)COC3)CC2)c2ccccc12` (single isomer, unassigned) [154 (isomer 2)], on PRC2 containing wt EZH2 (setting [2]), the half-maximal inhibitory concentration (IC50) was below 0.5 nM. The EC50 in assay [1] was below 10 nM.
The molecule `CSc1cc(C)[nH]c(=O)c1CNC(=O)c1c(C)n([C@H](C)C2CCC(N3CC(C)(F)C3)CC2)c2ncccc12` (stereo partly drawn) [Example 80, 1-((R)-1-(4-(3-fluoro-3-methylazetidin-1-yl)cyclohexyl)ethyl)-2-methyl-N-((6-methyl-4-(methylthio)-2-oxo-1,2-dihydropyridin-3-yl)methyl)-1H-pyrrolo[2,3-b]pyridine-3-carboxamide] yielded an IC50 on PRC2 containing wt EZH2 (setting [3]) below 0.5 nM. In assay [1] (Homo sapiens, HeLa, 72 h), the half-maximal effective concentration (EC50) fell in the range of 10 to 100 nM.
Regarding `CSc1cc(C)[nH]c(=O)c1CNC(=O)c1c(C)n([C@H](C)C2OCC(N3CC(F)(F)C3)CO2)c2ccccc12` (single isomer, unassigned) [85 (isomer 2)], the IC50 on PRC2 containing wt EZH2 (setting [3]) lay in the range of 0.5 to 5 nM. The concentration giving a half-maximal response (EC50) in assay [1] was above 100 nM.
With `CCCC(=O)OC1CCC([C@@H](C)n2c(C)c(C(=O)NCc3c(SC)cc(C)[nH]c3=O)c3ccccc32)CC1` (single isomer, unassigned) [143 (isomer 2)], the concentration for half-maximal inhibition (IC50) at PRC2 containing wt EZH2 (setting [2]) was below 0.5 nM. Moreover, in assay [1], the EC50 is below 10 nM.
Turning to `COC1CC(N2CC[C@H]([C@@H](C)n3c(C)c(C(=O)NCc4c(SC)cc(C)[nH]c4=O)c4ccccc43)[C@@H](F)C2)C1` (stereo partly drawn) [Example 152, 1-((R)-1-((3R,4R)-3-fluoro-1-(3-methoxycyclobutyl)piperidin-4-yl)ethyl)-2-methyl-N-((6-methyl-4-(methylthio)-2-oxo-1,2-dihydropyridin-3-yl)methyl)-1H-indole-3-carboxamide], the concentration for half-maximal inhibition (IC50) at PRC2 containing wt EZH2 (setting [2]) is below 0.5 nM. Besides, the EC50 in assay [1] (Homo sapiens, HeLa, 72 h) is below 10 nM.
Taken in the same sequence, the figures for `CSc1cc(C)[nH]c(=O)c1CNC(=O)c1c(C)n([C@H](C)C2CCC(N3CC(N(C)C)C3)CC2)c2ccccc12` (single isomer, unassigned) [148 (isomer 1)] were below 0.5 nM and 10 to 100 nM.
Regarding `CSc1cc(C)[nH]c(=O)c1CNC(=O)c1c(C)n([C@H](C)C2CCC(N3CC(F)(F)C3)CC2)c2ccccc12` (single isomer, unassigned) [23 (isomer 2)], at PRC2 containing wt EZH2 (setting [3]), the IC50 is below 0.5 nM. Moreover, the concentration for a half-maximal effect (EC50) in assay [1] is below 10 nM.
In the case of `CSc1cc(C)[nH]c(=O)c1CNC(=O)c1c(C)n([C@H](C)C2CCC(NC3(C(F)(F)F)CC3)CC2)c2ncccc12` (stereo partly drawn) [Example 161, 2-methyl-N-((6-methyl-4-(methylthio)-2-oxo-1,2-dihydropyridin-3-yl)methyl)-1-((R)-1-(4-((1-(trifluoromethyl)cyclopropyl)amino)cyclohexyl)ethyl)-1H-pyrrolo[2,3-b]pyridine-3-carboxamide], on PRC2 containing wt EZH2 (setting [2]), the IC50 is below 0.5 nM. Besides, the half-maximal effective concentration (EC50) in assay [1] (Homo sapiens, HeLa, 72 h) lay within 10 to 100 nM.
Molecule `CSc1cc(C)[nH]c(=O)c1CNC(=O)c1c(C)n([C@H](C)C2OCC(N3CC(F)(F)C3)CO2)c2ccccc12` (single isomer, unassigned) [85 (isomer 1)] returned an IC50 against PRC2 containing wt EZH2 (setting [3]) below 0.5 nM. For the same molecule, in assay [1], the EC50 was 10 to 100 nM.
Turning to `CSc1cc(C)[nH]c(=O)c1CNC(=O)c1c(C)n([C@H](C)C2CCC(N3CC(OC(C)(C)C)C3)CC2)c2ncccc12` (single isomer, unassigned) [112 (isomer 1)], the half-inhibitory concentration (IC50) on PRC2 containing wt EZH2 (setting [2]) is below 0.5 nM. Also, in assay [1] (Homo sapiens, HeLa, 72 h), the concentration for a half-maximal effect (EC50) is below 10 nM.
On the same counts, the results for `CSc1cc(C)[nH]c(=O)c1CNC(=O)c1c(C)n([C@H](C)C23CC(NC4COC4)(C2)C3)c2ccccc12` [Example 8, (R)-2-methyl-N-((6-methyl-4-(methylthio)-2-oxo-1,2-dihydropyridin-3-yl)methyl)-1-(1-(3-(oxetan-3-ylamino)bicyclo[1.1.1]pentan-1-yl)ethyl)-1H-indole-3-carboxamide] are below 0.5 nM and below 10 nM.
In turn, `CSc1cc(C)[nH]c(=O)c1CNC(=O)c1c(C)n([C@H](C)C2CCC(OC3CN(C)C3)CC2)c2ncccc12` (single isomer, unassigned) [145 (isomer 2)] came in with an IC50 against PRC2 containing wt EZH2 (setting [3]) below 0.5 nM. The EC50 in assay [1] was above 100 nM.
With `COC1CN(C2CCC([C@@H](C)n3c(C)c(C(=O)NCc4c(SC)cc(C)[nH]c4=O)c4cc(Cl)cnc43)CC2)C1` (single isomer, unassigned) [106 (isomer 1)], the half-inhibitory concentration (IC50) at PRC2 containing wt EZH2 (setting [2]) is below 0.5 nM. The half-maximal effective concentration (EC50) in assay [1] (Homo sapiens, HeLa, 72 h) is below 10 nM.
With `CSc1cc(C)[nH]c(=O)c1CNC(=O)c1c(C)n([C@H](C)C2CCOCC2)c2ccccc12` [Example 13, (R)-2-methyl-N-((6-methyl-4-(methylthio)-2-oxo-1,2-dihydropyridin-3-yl)methyl)-1-(1-(tetrahydro-2H-pyran-4-yl)ethyl)-1H-indole-3-carboxamide], at PRC2 containing wt EZH2 (setting [3]), the IC50 was below 0.5 nM. In assay [1] (Homo sapiens, HeLa, 72 h), the EC50 is below 10 nM.
